Reference: BigSolDB 2.1

CCC(C)n1ncn(-c2ccc(N3CCN(c4ccc(OC[C@H]5CO[C@](Cn6cncn6)(c6ccc(Cl)cc6Cl)O5)cc4)CC3)cc2)c1=O (mixture of isomers)
solubility (mole fraction)
Conditions	in chloroform	in dichloromethane	in ethanol	in methanol	in n-butanol	in n-propanol
288.15 K	0.0459	0.0287	1.07e-05	2.35e-05	1.43e-05	1.24e-05
293.15 K	0.048	0.0306	1.43e-05	2.97e-05	1.82e-05	1.61e-05
298.15 K	0.0503	0.0326	1.89e-05	3.78e-05	2.28e-05	2.09e-05
303.15 K	0.0525	0.0347	2.44e-05	4.71e-05	2.87e-05	2.68e-05
308.15 K	0.0548	0.0369	3.18e-05	5.88e-05	3.52e-05	3.36e-05
